Measured values as given in patent US8772284B2, “Method of treating cancer using combination of a bifunctional alkylating agent and DNA repair inhibitors” (Academia Sinica, priority 2009, dated 2014).

Legend:
NTUB1/P xenografts = experiment: NTUB1/P xenograft mouse model; type: in vivo, nude mice; conditions: 5 mg/kg ATO, i.v., QD×5
NTUB1 xenografts = experiment: NTUB1 xenograft mouse model; type: in vivo, nude mice; conditions: 2.5 mg/kg BO-1012 or 5 mg/kg ATO, i.v., QD×5
DNA ICLs in H460 cells = experiment: Modified comet assay, formation and repair of DNA ICLs; type: cell-based, human; conditions: treated 1 h
Description: (§1) H460 cells were treated with various concentrations of BO-1012, melphalan, or thiotepa for 1 h and then subjected to the modified comet assay as described in Materials and Methods. Percentage of DNA ICLs was calculated by the percentage of decrease in tail moment. […] H460 cells were treated with 40 μM BO-1012 for 1 h, washed, and then treated with 8 μM ATO for 16, 24, and 48 h. *, p<0.05 as compared to BO-1012 alone at the indicated time. […] H460 cells were treated with BO-1012 and ATO, alone or in combination, as described above. After treatment, the detection of γH2AX (green) immunofluorescence staining was performed as described in Materials and Methods. Nuclei were stained by DAPI (blue).
Modified Single-Cell Gel Electrophoresis (Comet) and DNA ICL Repair Assays. The formation and the repair of DNA ICLs in H460 cells was analyzed using a modified comet assay as described previously.

[1] = test system: NTUB1/P cells (cisplatin-resistant); experiment: Cell viability, WST-1 assay; type: cell-based, human; conditions: for IC50: NTUB1/P cells, agent alone
Text: (§2) Cell Lines and Cell Culture. H460 (human lung large cell carcinoma cells), H1299 (human lung large cell carcinoma p53-deficient cells), PC3 (human prostate carcinoma cells), U87 (human glioma cells), and MCF7 (human breast carcinoma cells) were purchased from the American Type Culture Collection (Rockville, Md.). OEC-M1 (human gingival squamous cell carcinoma cells) was obtained from Dr. C.-L. Meng (National Defense Medical College, Taiwan). NTUB1 (human bladder transitional carcinoma cells) and the cisplatin-resistant sub-line NTUB1/P were provided by Dr. Y.-S. Pu (National Taiwan University Hospital, Taiwan). CL-1-5 (human lung adenocarcinoma cells) was obtained from Dr. P. C. Yang (National Taiwan University). All cell lines (except U87, which was grown in MEM medium) were cultured in RPMI1640 medium supplemented with 10% FBS and antibiotics, and incubated at 37° C. in a humidified atmosphere with 5% CO2.
(§3) Measurement of Cell Viability. Cell viability was assessed using the cell proliferation reagent WST-1 (Roche Molecular Biochemicals, Penzberg, Germany), which is a tetrazolium salt that is cleaved by mitochondrial dehydrogenase in viable cells. In brief, 2,000-7,000 cells were seeded in each well of 96-well plates and incubated at 37° C. overnight prior to drug treatment. After a 72-h incubation with BO-1012 alone (0.1˜80 μM), ATO alone (1˜8 μM), or BO-1012 plus ATO, WST-1 solution was added to each well at a 1:10 dilution, and cells were incubated at 37° C. in 5% CO2 for 4 h. Cell viability was assessed by absorbance at 460 nm using an automatic enzyme-linked immunosorbent assay (ELISA) plate reader. The IC50 value for each drug, alone or in combination, was calculated using CompuSyn software (version 1.0.1; CompuSyn, Inc.). The interactions between ATO and BO-1012 were evaluated by the Chou-Talalay combination indices (CI), where CI<1 indicates synergy; CI=1, additivity; and CI>1, antagonism.

NTUB1 cells = experiment: Cell viability, WST-1 assay; type: cell-based, human; conditions: agent alone
Text: as §2, §3

H460 xenografts = experiment: H460 xenograft mouse model; type: in vivo, nude mice; conditions: 2.5 mg/kg BO-1012 and/or 5 mg/kg ATO, i.v., QD×5
[2] = test system: γH2AX nuclear foci in H460 cells; experiment: γH2AX nuclear foci, immunofluorescence staining; type: cell-based, human; conditions: time not stated
Description: as §1
Immunofluorescence Staining. H460 cells were cultured onto slides and then treated with BO-1012 and ATO, separately and in combination as described above, for 24, 48, or 72 h. To visualize γH2AX, cells were washed with cold PBS and fixed with 100% ice-cold methanol for 30 min. Slides were washed with PBS and incubated with anti-γH2AX antibody for 2 h at room temperature followed by Alexa Fluor 488-conjugated secondary antibodies (Molecular Probes, Eugene, Oreg.) and DAPI. After mounting with 50% glycerol, slides were subjected to confocal image analysis (Radiance 2100 System, Bio-Rad). Cells with at least four γH2AX foci in nuclei were counted as positive.

[3] = test system: NTUB1/P cells (cisplatin-resistant); conditions: NTUB1/P vs NTUB1, stated with ref [37]; cited from earlier work
CL-1-5 xenografts = conditions: CL-1-5 xenograft; LY294002 40 mg/Kg QD×9, triciribine 1 mg/Kg Q2D×5, BO-1509 10 mg/Kg

Molecule	formation of ICLs (DNA ICLs in H460 cells)	IC50 [1]	IC50 (NTUB1 cells)	further results
arsenic trioxide [ATO]	did not cause ICLs	3.8 µM	0.4 µM	growth of NTUB1/P tumors (NTUB1/P xenografts): did not effectively suppress; growth of NTUB1 tumors (NTUB1 xenografts): did not effectively suppress; fold more resistant, NTUB1/P than NTUB1 cells ([1]; ratio of IC50 values): 9.5 fold; time to achieve a tumor volume of 500 mm^3 (H460 xenografts): 7.1 days; percentage of cells with γH2AX foci [2]: 26.8%
S=P(N1CC1)(N1CC1)N1CC1 [thiotepa]	increased in a dose-dependent fashion			
N.N.[Cl][Pt][Cl] [cisplatin]		212 µM	3.6 µM	fold more resistant to cisplatin than the parental cells [3]: 60 fold
O=c1cc(N2CCOCC2)oc2c(-c3ccccc3)cccc12 [LY294002, 2-(4-morpholinyl)-8-phenyl-chromone]				suppression of tumor growth (CL-1-5 xenografts): unable to suppress the tumor growth at all
N[C@@H](Cc1ccc(N(CCCl)CCCl)cc1)C(=O)O [melphalan]	increased in a dose-dependent fashion			
